This note sets out measurements from US20070037752A1, “Novel alanyl-amino peptidase inhibitors for functionally influencing different cells and treating immunological, inflammatory, neuronal, and other diseases” (priority 2003, published 2007).

Each structure is given as a SMILES string. Read-outs that look alike come from different tables or passages of the source.

The target of the test is alanyl aminopeptidases (APN) (Homo sapiens, UniProt P15144). Description: Inhibition of alanyl aminopeptidase enzymatic activity, fluorogenic substrate (Ala)2-rhodamine 110. The format is biochemical. The procedure:
The inhibition characteristics measured are referred to as IC-50 values or ID50 values (the latter marked with “*”) for said enzyme. The enzymatic activity was determined by means of the fluorogenic substrate/product (Ala)2-rhodamine 110.

Setting [1] is: Table 3, unstarred values, read-out: IC50APN.
Where [2] appears, read: Table 3, starred values = ID50, read-out: ID50 APN (values marked with *).

alanyl aminopeptidases (APN), sequence (P15144 whole entry, species assumed): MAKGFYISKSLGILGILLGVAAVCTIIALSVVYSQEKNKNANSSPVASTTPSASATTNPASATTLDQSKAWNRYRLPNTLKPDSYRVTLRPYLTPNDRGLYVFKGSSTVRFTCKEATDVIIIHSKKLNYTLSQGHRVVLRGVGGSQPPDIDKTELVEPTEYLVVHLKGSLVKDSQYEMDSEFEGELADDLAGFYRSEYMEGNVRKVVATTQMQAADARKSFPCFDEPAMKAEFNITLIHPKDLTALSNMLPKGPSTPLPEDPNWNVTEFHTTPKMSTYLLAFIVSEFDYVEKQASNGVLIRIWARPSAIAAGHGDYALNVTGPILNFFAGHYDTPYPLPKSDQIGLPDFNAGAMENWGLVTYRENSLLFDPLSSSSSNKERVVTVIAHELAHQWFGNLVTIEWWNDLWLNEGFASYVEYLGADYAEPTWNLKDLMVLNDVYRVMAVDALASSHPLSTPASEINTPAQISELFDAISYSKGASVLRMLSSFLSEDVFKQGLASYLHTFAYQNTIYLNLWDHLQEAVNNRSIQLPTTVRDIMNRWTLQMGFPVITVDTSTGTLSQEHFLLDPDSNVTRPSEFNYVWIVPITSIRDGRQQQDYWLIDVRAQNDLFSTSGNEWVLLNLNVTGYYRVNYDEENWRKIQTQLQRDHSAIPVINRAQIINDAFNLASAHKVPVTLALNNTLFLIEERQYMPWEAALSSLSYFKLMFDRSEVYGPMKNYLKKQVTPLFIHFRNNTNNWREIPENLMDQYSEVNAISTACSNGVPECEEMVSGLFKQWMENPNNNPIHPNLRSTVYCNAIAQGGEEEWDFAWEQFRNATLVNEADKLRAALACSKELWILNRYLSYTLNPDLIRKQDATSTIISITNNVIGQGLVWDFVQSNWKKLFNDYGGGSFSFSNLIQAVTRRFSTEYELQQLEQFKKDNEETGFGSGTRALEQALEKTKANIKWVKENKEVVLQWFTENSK

Regarding `O=C(N/N=C/c1cc(Br)ccc1OC(=O)c1ccc([N+](=O)[O-])cc1)/C(=C\c1ccc2c(c1)OCO2)NC(=O)c1ccccc1` [A3.271], under setting [1], the IC50 is 54.2 µM.

Regarding `CC(=O)c1ccc(NC(=O)/C=C/c2ccc(C)o2)cc1` [A3.272], the IC50 under setting [1] is 54.4 µM.

As to `Cc1ccc(/C=C(\NC(=O)c2ccccc2)C(=O)NCCN2CCOCC2)o1` [A3.273], the IC50 under setting [2] is 55 µM.

Turning to `O=C(CNS(=O)(=O)c1ccc2c(c1)OCCO2)N/N=C/c1ccco1` [A3.274], under setting [1], the IC50 came to 55.6 µM.

As for `O=C(NCCc1ccccc1)/C(=C\c1ccco1)NC(=O)c1ccccc1` [A3.275], under setting [1], the IC50 stood at 55.8 µM.

Consider `COc1ccccc1NC(=O)/C=C\c1ccco1` [A3.276], for which the IC50 under setting [1] amounted to 56.4 µM.

For `COc1ccc(OC)c(NC(=O)/C=C/c2ccc(C)o2)c1` [A3.277], the IC50 under setting [1] was 56.8 µM.

`C/C(=N\NC(=O)c1cc(-c2ccccc2)n[nH]1)c1ccco1` [A3.278]: under setting [1], the IC50 was 58.3 µM.

As for `CCOc1ccccc1NC(=O)c1c(NCc2cccc(OC)c2)sc2c1CCC2` [A3.279], the IC50 under setting [1] turned out to be 58.4 µM.

For `O=C(CNC(=O)c1ccccc1F)N/N=C/c1ccc([N+](=O)[O-])o1` [A3.280], the IC50 under setting [1] worked out at 60 µM.

For `O=C(Nc1ccccc1F)c1ccc([N+](=O)[O-])o1` [A3.281], the IC50 under setting [1] was determined as 62.4 µM.

With `O=C(N/N=C/C=C\c1ccco1)c1cccs1` [A3.282], the IC50 under setting [1] is 62.7 µM.

Take `O=C(N/N=C/c1ccco1)c1cccc(Br)c1` [A3.283]: the IC50 under setting [1] turned out to be 62.7 µM.

Take `Cc1ccc(/C=N/NC(=O)COc2cccc(Cl)c2)o1` [A3.284]: the IC50 under setting [1] is 62.7 µM.

`CC(=O)Nc1cccc(C(=O)N/N=C/c2ccc(C)o2)c1` [A3.285]: the IC50 under setting [2] came to 63.1 µM.

In the case of `O=[N+]([O-])c1ccc(C2OCN3COCC23)cc1` (stereo not drawn) [A3.287], the IC50 under setting [1] turned out to be 64.5 µM.

Take `COc1ccc(C(=O)NCC(=O)N/N=C/c2ccco2)cc1OC` [A3.288]: the IC50 under setting [2] stood at 64.9 µM.

`O=c1cc(CSc2nnc(-c3ccco3)c(-c3ccco3)n2)c2ccccc2[nH]1` [A3.289]: the IC50 under setting [2] is 65.1 µM.

As for `Cc1nc(NC(C)C(=O)O)c2nc(C)oc2n1` (stereo not drawn) [A3.290], the IC50 under setting [1] was determined as 65.8 µM.

As to `COc1ccc(CSCC(=O)N/N=C/c2ccco2)cc1` [A3.291], the IC50 under setting [2] was determined as 66 µM.

`O=C1C(Cc2ccc(O)cc2)NC(=S)N1c1ccccc1` (stereo not drawn) [A3.292]: the IC50 under setting [1] is 66.6 µM.

In the case of `Cc1cccc(C(=O)Nc2ccc(C(=O)N/N=C/c3ccco3)cc2)c1` [A3.293], the IC50 under setting [2] is 67.1 µM.

For the compound `CC(=O)C1C(c2ccc(N(C)C)cc2)C2C(=O)N(C3CCCCC3)C(=O)N2C1c1sccc1C` (stereo not drawn) [A3.294], the IC50 under setting [1] was 68 µM.

With `O=C1C(=Cc2ccc([N+](=O)[O-])o2)C(=O)c2ccccc21` [A3.295], the IC50 under setting [1] came to 68 µM.

Take `O=C(N/N=C/c1ccco1)c1ccc(F)cc1` [A3.296]: the IC50 under setting [1] worked out at 68.9 µM.

Consider `Cc1ccc(C(=O)N/C(=C\c2ccco2)C(=O)N2CCSCC2)cc1C` [A3.297], for which the IC50 under setting [1] amounted to 68.9 µM.

For `Cc1ccc(S(=O)(=O)N2CCC(C(=O)N/N=C/c3ccco3)CC2)cc1` [A3.298], the IC50 under setting [1] came to 69.3 µM.

For the compound `N#Cc1c(NC(=O)C(C(F)(F)F)C(F)(F)F)sc2c1CCCC2` [A3.299], the IC50 under setting [1] was determined as 71.4 µM.

For `O=C(Cc1ccccc1)NCC(=O)N/N=C/c1ccco1` [A3.300], under setting [2], the IC50 was determined as 73.1 µM.

In the case of `O=C(CCc1ccccc1)N/N=C/c1ccco1` [A3.302], under setting [1], the IC50 was 74.7 µM.

Consider `O=C(N/N=C/c1ccco1)c1cc(-c2ccccc2Cl)n[nH]1` [A3.303], for which the IC50 under setting [2] turned out to be 75.8 µM.

For `Oc1ccc(Cl)cc1/N=C/c1ccc(-c2ccc(F)cc2)o1` [A3.305], the IC50 under setting [1] is 77.3 µM.

For `Cn1c(=O)c2c(ncn2CC(=O)N/N=C/C=C\c2ccco2)n(C)c1=O` [A3.307], the IC50 under setting [2] amounted to 79.8 µM.

In the case of `Cc1ccc(OCC(=O)N/N=C\c2ccco2)c(C)c1` [A3.309], under setting [2], the IC50 was 81.8 µM.

`O=C(CCn1nnc2ccccc21)N/N=C/c1ccco1` [A3.310]: the IC50 under setting [1] was determined as 82.9 µM.

Turning to `O=C(CCNC(=O)c1ccccc1Br)N/N=C/c1ccco1` [A3.311], the IC50 under setting [2] came out at 85.8 µM.

`O=C(COc1ccccc1)N/N=C/c1ccco1` [A3.312]: under setting [1], the IC50 was found to be 87.5 µM.

With `Cc1nc(-c2ccc(Br)cc2)c(CC(=O)O)s1` [A3.313], the IC50 under setting [1] is 88.3 µM.

As to `O=C(CNC(=O)c1ccccc1Br)N/N=C/c1ccco1` [A3.314], the IC50 under setting [2] was determined as 91.2 µM.

As to `O=C(N/N=C/c1ccco1)c1ccccc1[N+](=O)[O-]` [A3.315], the IC50 under setting [1] stood at 92.2 µM.

Take `COc1ccc(C2NCCS2)cc1OC` (stereo not drawn) [A3.316]: under setting [1], the IC50 amounted to 92.1 µM.

Consider `COC(=O)CCC/C=C1/SC[C@@H](NC(=O)c2ccccc2)/C1=N/O` [A3.317], for which, under setting [1], the IC50 was 93.6 µM.

As for `O=C(CNC(=O)c1ccccc1O)N/N=C/c1ccco1` [A3.318], the IC50 under setting [2] is 98.8 µM.

As for `C#CCN1C(c2cnccn2)=NC(CC(C)C)C1C(=O)Nc1c(C)cccc1C` (stereo not drawn) [A3.319], the IC50 under setting [2] stood at 103 µM.

Turning to `Cn1cccc1CC(=O)N/N=C\c1ccco1` [A3.320], under setting [2], the IC50 was 113 µM.

`COc1c(OCC(O)C(C)(C)O)ccc2c1N=C1OC=CC1C2OC` (stereo not drawn) [A3.321]: under setting [1], the IC50 worked out at 125 µM.

As for `CC1=C(C#N)C(=O)N(CCO)C(=O)/C1=C\c1ccc(-c2ccc(C)c(Cl)c2)o1` [A3.322], the IC50 under setting [1] stood at 125 µM.

With `COC(=O)c1c(N)ncn1-c1ccccc1` [A3.323], the IC50 under setting [2] was found to be 126 µM.

For the compound `O=C(N/N=C\C=C\c1ccco1)c1cc(-c2cccs2)n[nH]1` [A3.324], the IC50 under setting [2] came out at 132 µM.

Consider `CC(=O)Oc1ccc2c(=O)c(-c3cnn(-c4ccccc4)c3)c(C(F)(F)F)oc2c1OC(C)=O` [A3.325], for which the IC50 under setting [2] was determined as 134 µM.

Take `NCCCNC(=O)C1Cc2ncn(Cc3ccccc3[N+](=O)[O-])c2CN1Cc1ccccn1` (stereo not drawn) [A3.326]: the IC50 under setting [1] came out at 138 µM.

`CC(C(=O)N/N=C/c1ccco1)n1nnc2ccccc21` (stereo not drawn) [A3.327]: the IC50 under setting [2] is 146 µM.

As for `COc1cccc(/C=N/NC(=O)c2ccn(C)n2)c1O` [A3.328], the IC50 under setting [1] was determined as 142 µM.

`O=C(Cc1cccs1)N/N=C\c1ccco1` [A3.329]: the IC50 under setting [1] was 143 µM.

Consider `CN1C(=O)C(Cc2c[nH]c3ccccc23)NC1=S` (stereo not drawn) [A3.330], for which the IC50 under setting [2] was 146 µM.

Regarding `C/C(=N\NC(=O)c1ccco1)c1ccc(C)o1` [A3.331], the IC50 under setting [1] was 152 µM.

Regarding `CCCC1NC(=S)N(c2ccccc2)C1=O` (stereo not drawn) [A3.332], under setting [2], the IC50 stood at 154 µM.

In the case of `O=C(CNC(=O)c1cccc(F)c1)N/N=C/c1ccco1` [A3.333], the IC50 under setting [2] was 155 µM.

Consider `C/C(=N\NC(=O)c1cc(-c2ccco2)n[nH]1)c1ccco1` [A3.334], for which the IC50 under setting [2] was found to be 161 µM.

Turning to `COc1cc(C(=O)NCC(=O)N/N=C\c2ccc(C)o2)cc(OC)c1OC` [A3.335], the IC50 under setting [2] amounted to 161 µM.

In the case of `CCOC(=O)c1c(-c2ccccc2)c[nH]c1N` [A3.336], the IC50 under setting [2] worked out at 169 µM.

Take `O=C(CN1C(=O)C2C3C=CC(C3)C2C1=O)Nc1ccc(C(F)(F)F)cc1` (stereo not drawn) [A3.337]: the IC50 under setting [2] came out at 223 µM.

`CN(C)c1ccc(C2NCCS2)cc1` (stereo not drawn) [A3.338]: the IC50 under setting [2] was 230 µM.

`O=C(/C=C/c1ccco1)NCCCN1CCOCC1` [A3.339]: under setting [2], the IC50 was determined as 208 µM.

Turning to `COc1cccc(C(=O)NCC(=O)N/N=C/c2ccc([N+](=O)[O-])o2)c1` [A3.340], the IC50 under setting [2] stood at 222 µM.

Regarding `COC(=O)c1cc(C(=O)NC2CCSC2=O)cc([N+](=O)[O-])c1` (stereo not drawn) [A3.341], under setting [2], the IC50 was found to be 238 µM.
